PMC9234021 (Cell Reports, 2022)
Like-named read-outs stand apart in the source and are kept apart here. No end group written: not given here.

Legend:
A549-ACE2 cells = assay: Cell viability; format: cell-based; settings: A549-ACE2, 500 nM, 48 hours, CellTiter-Glo, relative to DMSO
Calu3 cells [1] = assay: Cell viability; format: cell-based; settings: Calu3, 500 nM, 48 hours, CellTiter-Glo, relative to DMSO
Calu3 cells [2] = format: cell-based
A549 cells = assay: qRT-PCR of poly; format: cell-based
BET proteins = settings: cited from earlier work
SARS-CoV-2 [3] = format: cell-based, SARS-CoV-2 isolate USA-WA1/2020; settings: p = 0.0001, three independent experiments in duplicate
SARS-CoV-2 [4] = format: cell-based, SARS-CoV-2 isolate USA-WA1/2020; settings: p = 0.0004, three independent experiments in triplicate
SARS-CoV-2 [5] = format: in vivo, K18-hACE2 C57BL/6J mice; settings: JQ1 50 mg/kg i.p. or ABBV-744 20 mg/kg oral once daily, n = 5 per group
[6] = test system: SARS-CoV-2 nucleocapsid (N) protein; format: in vivo, K18-hACE2 C57BL/6J mice; settings: JQ1 50 mg/kg i.p. or ABBV-744 20 mg/kg oral once daily
[7] = test system: lungs of SARS-CoV-2 infected mice; set-up: species or system K18-hACE2 C57BL/6J mice; settings: mouse, in vivo
SARS-CoV-2 [8] = test system: SARS-CoV-2; set-up: species or system K18-hACE2 C57BL/6J mice; settings: mouse, in vivo
[9] = identical treatment with JQ1 or ABBV-744, H&E
SARS-CoV-2 [10] = settings: mouse, in vivo; cited from earlier work
influenza A = settings: cited from earlier work
[11] = target: BRD4 second bromodomain BD2 (349-460), His-SUMO tag removed (UniProt O60885 349-460, 15N-labeled); assay: NMR titration
[12] = pan-BET inhibitors, no reference given

Molecule	IFNB1 expression (Calu3 cells [2])	IL6 expression (Calu3 cells [2])	ISG15 expression (Calu3 cells [2])	poly(I:C)-mediated induction of IFNB1 (A549 cells)	poly(I:C)-mediated induction of IL6 (A549 cells)	poly(I:C)-mediated induction of ISG15 (A549 cells)	bromodomain specificity (BET proteins; [12])	increase in infectious particle production in lungs (SARS-CoV-2 [5])	immunohistochemical staining for SARS-CoV-2 N protein in lungs [6]	CCL2 expression in lungs [7]	CXCL9 expression in lungs [7]	CXCL10 expression in lungs [7]	IL1a expression in lungs [7]	IL6 expression in lungs [7]	ISG15 expression in lungs [7]	RIG-I expression in lungs [7]	immune cell infiltration in the lungs (SARS-CoV-2 [8])	lung inflammation in healthy, uninfected mice [9]	Kd [11]	other results
Cc1sc2c(c1C)C(c1ccc(Cl)cc1)=N[C@@H](CC(=O)NCCCCCCCCNC(=O)COc1cccc3c1C(=O)N(C1CCC(=O)NC1=O)C3=O)c1nnc(C)n1-2 (stereo partly shown) [dBET6]	suppressed	suppressed	suppressed	dampened	dampened	dampened	disrupt BD1- and BD2-mediated interactions													viability (A549-ACE2 cells): non-toxic; viability (Calu3 cells [1]): non-toxic
CCNC(=O)c1cc2c(-c3cc(C(C)(C)O)ccc3Oc3c(C)cc(F)cc3C)cn(C)c(=O)c2[nH]1 [ABBV-744, N-Ethyl-4-[2-(4-fluoro-2,6-dimethyl-phenoxy)-5-(1-hydroxy-1-methyl-ethyl)phenyl]-6-methyl-7-oxo-1H-pyrrolo[2,3-c]pyridine-2-carboxamide]								37 fold	increased	significant decreases	significant decreases	significant decreases	significant decreases	significant decreases	significant decreases	significant decreases	decrease in immune cell infiltration	did not experience lung inflammation		increase in infectious particle production (SARS-CoV-2 [3]): 3 fold; increase in SARS-CoV-2 viral RNA (SARS-CoV-2 [4]): 3 fold; bromodomain specificity (BET proteins; ABBV-744, ref Sheppard et al., 2020): specifically targets BD2-mediated interactions
Cc1noc(C)c1-c1ccc2[nH]c(=O)n3c2c1OC[C@@H]3c1ccccn1 [INCB054329]																				lung pathology (SARS-CoV-2 [10]): severe lung pathology; viral RNA in the lungs (SARS-CoV-2 [10]): significant viral RNA in the lungs
Cc1sc2c(c1C)C(c1ccc(Cl)cc1)=N[C@@H](CC(=O)OC(C)(C)C)c1nnc(C)n1-2 [JQ1]	suppressed	suppressed	suppressed	dampened	dampened	dampened	disrupt BD1- and BD2-mediated interactions	18 fold	increased	significant decreases	significant decreases	significant decreases	significant decreases	significant decreases	significant decreases	significant decreases	decrease in immune cell infiltration	did not experience lung inflammation		transcriptional activation of the antiviral response (influenza A): attenuates transcriptional activation of the antiviral response
VYSRVK(Ac)NLNSS [SARS-CoV-2 E peptide, residues 58-68, acetylated at K63]																			170 ± 60 µM	
NVSLVK(Ac)PSFYV [SARS-CoV-2 E peptide, residues 48-58, acetylated at K53]																			610 ± 160 µM	
